From patent publication US9895344B2, “Treating various disorders with 7,8-dihydroxyflavone and derivatives thereof” (EMORY UNIVERSITY, priority 2008, dated 2018)

How the values were obtained:
[1] = biological target: T1, TrkB (Rattus norvegicus, UniProt Q63604); assay: TrkB activation in primary cortical neurons (p-TrkB Y817 immunoblotting); type: cell-based; parameters: endogenous in cells; host or cells: primary cortical neurons; details: 500 nM, 30 min, FIG. 27 left
Method: Primary cultured rat cortical neurons were prepared as follows. E17 rat pups were decapitated and cortex was extirpated, cross chopped, and suspended by pipetting for separation in 5% fetal calf serum (FCS), 5% horse serum (HS) DMEM. The cell suspension was then centrifuged at 250×g for 5 minutes. This operation was repeated again. Cells were seeded into polyethyleneimine-coated 10 cm^2 dishes and 12-well plates including coated-coverslips and incubated at 37° C. in 5% CO2/95% air. After 3 hours, the culture medium was changed to Neurobasal containing B-27 supplement (Invitrogen; Carlsbad, Calif.) and incubated for 4 days. For maintenance, half of the culture medium was changed to fresh Neurobasal/B27 every 4 days. After 1 week, the dished cultured neurons were ready for use.
To compare the TrkB activation by the synthetic compounds of Examples 9 and 10 (see FIG. 26), primary cortical cultures were prepared. The cortical neurons were treated with 500 nM of various compounds for 30 min and collected the cell lysates. […] Replacing the H-bond acceptor O atom with hydrogen bond donor NH reduced its stimulatory effect. […] In comparison, 7,8-DHF provoked TrkB activation with the minimal concentration of 100 nM (FIG. 27, right panels).
Target sequence in this assay (Q63604 32-821): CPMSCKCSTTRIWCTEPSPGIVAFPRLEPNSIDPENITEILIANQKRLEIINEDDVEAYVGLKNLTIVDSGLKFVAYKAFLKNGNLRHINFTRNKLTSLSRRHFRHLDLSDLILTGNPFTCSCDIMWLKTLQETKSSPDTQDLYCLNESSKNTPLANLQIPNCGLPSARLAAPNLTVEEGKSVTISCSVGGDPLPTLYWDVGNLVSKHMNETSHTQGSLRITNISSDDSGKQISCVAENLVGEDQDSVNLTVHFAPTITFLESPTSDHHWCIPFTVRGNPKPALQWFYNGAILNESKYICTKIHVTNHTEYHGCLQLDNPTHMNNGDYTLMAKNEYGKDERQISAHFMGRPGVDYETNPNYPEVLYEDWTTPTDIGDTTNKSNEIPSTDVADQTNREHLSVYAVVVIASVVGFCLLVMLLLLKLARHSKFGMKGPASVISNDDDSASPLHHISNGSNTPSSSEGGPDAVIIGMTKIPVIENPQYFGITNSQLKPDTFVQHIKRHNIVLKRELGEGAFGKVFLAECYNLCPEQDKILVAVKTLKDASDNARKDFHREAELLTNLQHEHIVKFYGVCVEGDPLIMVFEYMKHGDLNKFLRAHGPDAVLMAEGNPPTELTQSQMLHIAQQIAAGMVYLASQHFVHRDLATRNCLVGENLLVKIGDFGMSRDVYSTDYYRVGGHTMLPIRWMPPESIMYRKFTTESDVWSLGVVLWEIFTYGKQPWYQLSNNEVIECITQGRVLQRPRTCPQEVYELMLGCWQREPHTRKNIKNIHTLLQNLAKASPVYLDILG

[2] = test system: immobility; assay: Forced swim test, 5 days intraperitoneal; type: in vivo, mice; details: intraperitoneally for 5 days; imipramine 20 mg/kg, amitryptyline 15 mg/kg, 7,8-dihydroxyflavone 5 mg/kg; FIG. 25
Method: Adult male mice (2-3 months old, n=8) were randomly submitted, without a pre-swim, to a forced swim test of 6 minutes with immobility recorded in the last 4 minutes. Mice were injected intraperitoneally for 5 days with saline, imipramine (20 mg/kg), amitryptyline (15 mg/kg), or 7,8-dihydroxyflavone (5 mg/kg). The mice were allowed to adapt to the test room for 2 days, and the mice were placed in a clear glass cylinder with a diameter of 16 cm, half-filled with clear water at 24° C. […] Data are presented as mean±SEM; *p<0.05 against vehicle, **P<0.01 against vehicle and ***P<0.0001 against vehicle, student t-test.

[3] = test system: Erk; assay: Western analysis of Erk phosphorylation in hippocampal neurons; type: cell-based; details: FIG. 9
Method: (§1) To further examine whether 7,8-dihydroxyflavone can stimulate TrkB-mediated downstream signaling cascades, Western analysis was performed.
(§2) To probe the time course of 7,8-dihydroxyflavone triggered TrkB activation, hippocampal neurons were treated with 7,8-dihydroxyflavone at 500 nM and phosphorylation of Erk and Akt was determined over time by Western analysis. […] Stimulation of Erk and Akt by 7,8-dihydroxyflavone also occurred in a dose dependent manner.

[4] = test system: hippocampal neurons; assay: Glutamate-triggered apoptosis in hippocampal neurons; type: cell-based; details: pretreated 30 minutes, 50 μM glutamate for 16 hours, compared with BDNF, FIG. 6
Method: To examine whether these compounds could promote neuronal survival, hippocampal neurons were prepared and the cultures were pretreated with various flavone derivatives for 30 minutes, followed by treatment with 50 μM glutamate for 16 hours.

[5] = test system: T48 cells; assay: Fluorescent apoptotic assay (Staurosporine, MR(DEVD)2) in TrkB stably transfected T48 cells; type: cell-based, murine; details: for EC50: Mus musculus, T48 cells, FIG. 5, read-out: effective concentration at which 50% (EC50) of the cells are protected from apoptosis; for suppression of apoptosis in T48 cell line: Staurosporine-induced apoptosis, FIG. 1B and FIG. 4
Text: Create and test reporter cell lines. In order to identify small molecules that mimic BDNF and activate TrkB, TrkB stably transfected murine cell lines were created. The T48 and T62 cell lines were created by transfecting basal forebrain SN56 cells, which express negligible TrkB, with a TrkB expression construct. […] To test resistance to apoptosis, SN56 cells and the T48 cell line were either untreated or treated with BDNF, and then subjected to an apoptotic assay. Briefly, the cells were treated with 0.75 μM Staurosporine for 9 hours, and 1 hour before the termination of the experiment, the cells were treated with 10 μM MR (DEVD)2. The cells were then fixed with 4% paraformaldehyde for 15 minutes, washed with phosphate buffered saline (PBS), and incubated with Hoechst 33342 for 10 minutes. Cover slides were washed with PBS, mounted, and the cells were examined using a fluorescent microscope to see which cells turned red upon caspase cleavage.
Cell-based screen. To screen a large number of chemicals, a cell-based apoptic assay was developed using a cell permeable fluorescent dye, MR (DEVD)2, which turns red upon caspase cleavage in apoptotic cells. SN56 and T48 cells were plated at 10,000 cells per well in multiple 96-well plates and exposed to 2000 biologically active compounds from the Spectrum Collection Library for 30 minutes at a concentration of 10 μM in DMSO. Following exposure to the compounds, the cells were subjected to the developed fluorescent apoptotic assay described above (method schematically shown in FIG. 2).
In the initial screen, 5 of the 66 positive compounds were flavone derivatives or similar compounds. […] To compare the apoptosis inhibitory activity, the flavone derivatives were preincubated with SN56 and T48 cells, and subsequently were subjected to the fluorescent apoptotic assay as described above. […] Additionally, the effective concentration at which 50% (EC50) of the cells are protected from apoptosis was determined for 7,8-dihydroxyflavone, Cianidanol, Pinocembrin and Diosmetin.

[6] = test system: immobility time; assay: Forced swim test in TrkB F616A knockin mice with saline or 1NMPP1 pretreatment; type: in vivo; details: 1NMPP1 25 μM in drinking water
Method: To assess whether the behavior responses by 7,8-DHF and its derivative are mediated by TrkB receptor, TrkB F616A knockin mice were utilized. The transgenic mice were subjected to saline or 1NMPP1 pretreatment (25 μM), respectively (drinking water provided one day prior to drug injection and maintained throughout whole experiment). The control and/or drugs were provided for five days. […] (Data presented in FIGS. 34, 35, and 36 as mean±SEM; *p<0.05 against vehicle, #P<0.01 against vehicle and ***P<0.0001 against vehicle, student t-test.)

[7] = biological target: T2, TrkB F616A (Mus musculus, UniProt P15209, F616A); assay: TrkB phosphorylation in cortical neurons from TrkB F616A knockin mice; type: cell-based; details: inhibitor 100 nM, pretreated 30 minutes
T2 construct: endogenous in cells; host or cells: cortical neurons of TrkB F616A knock-in mice
Method: (§3) To explore whether the neuroprotective action of 7,8-dihydroxyflavone is dependent on TrkB activation in vivo, TrkB F616A knockin mice were used. […] To further assess whether 7,8-dihydroxyflavone can mimic BDNF, cortical neurons were prepared from TrkB F616A knockin mice. The cortical neurons were pretreated for 30 minutes with either K252a Trk tyrosine kinase inhibitor (100 nM) or 1NMPP1 inhibitor (100 nM) followed by 0.5 μM 7,8-dihydroxyflavone for 30 minutes.

[8] = test system: KA-provoked apoptosis; assay: KA-provoked neuronal cell death in TrkB F616A knockin mice, intraperitoneal (caspase-3 immunoblot); type: in vivo
Method: To determine if 1NMPP1 would make neurons treated with 7,8-dihydroxyflavone vulnerable to KA-provoked neuronal cell death, TrkF616A knockin mice were fed with 1NMPP1 (25 mM) in drinking water one day prior to pharmacological reagent treatment. The next day, the mice were intraperitoneally injected with KA (25 mg/kg), or 7,8-dihydroxyflavone (5 mg/kg) 4 hours prior to KA injection. The control mice were injected with either KA or 7,8-dihydroxyflavone alone, or the mice were administered 7,8-dihydroxyflavone 4 hours before KA. In 4 days, the mice were sacrificed and the brains were homogenated and ultracentrifuged. The supernatant was employed for SDS-PAGE and immunoblotting analysis.

[9] = test system: Akt and Erk1/2; assay: Akt and Erk1/2 activation in cortical neurons from TrkB F616A knockin mice; type: cell-based; details: inhibitor 100 nM
Method: as §3

[10] = test system: Caspase-3 activation; assay: Glutamate-provoked Caspase-3 activation in wild-type and TrkB-/- cortical neurons; type: cell-based, mice; details: control compounds, FIG. 21
Method: To determine whether 7,8-dihydroxyflavone can selectively activate TrkB receptor and prevent neuronal cell death, cortical neurons were prepared from homozygous pups of TrkB+/−mice, which were mated to the same genotype. […] Glutamate nonselectively elicited weak TrkA phosphorylation in both wild-type and TrkB-null neurons (FIG. 21, row 3).

[11] = test system: Akt; assay: Western analysis of Akt phosphorylation in hippocampal neurons; type: cell-based; details: FIG. 9
Method: as §1, §2

[12] = biological target: T1, TrkB; assay: TrkB receptor dimerization in cotransfected HEK293 cells (GST pull-down); type: cell-based; parameters: expressed in transfected cells; host or cells: HEK293
Method: BDNF is known to bind the TrkB receptor and provoke its dimerization (Barbacid, J. Neurobiol., 25:1386-1403, 1994; Klein et al, Cell, 66:395-403, 1991). To explore whether 7,8-dihydroxyflavone triggers TrkB receptor dimerization, HEK293 cells were cotransfected with GST-TrkB and HA-TrkB or HA-TrkA. The cells were then treated with BDNF or small flavone compounds (0.5 μM) for 30 minutes. The cells were harvested, washed once in PBS, and lysed in 1 ml lysis buffer (50 mM Tris, ph 7.4, 150 mM NaCl, 1 mM EDTA, 0.5% Triton X-100, 1.5 mM Na3VO4, 50 mM NaF, 10 mM sodium pyrophosphate, 10 mM sodium β-glycerophosphate, 1 mM phenylmethylsulfonyl fluoride (PMSF), 5 mg/ml aprotinin, 1 mg/ml leupeptin, 1 mg/ml pepstatin A) and centrifuged for 10 minutes at 14,000×g at 4° C. The supernatant was transferred to a fresh tube and transfected TrkB receptor was separated from the supernatant with glutathione beads, and the coprecipitated proteins were resolved on SDS-PAGE.
Target sequence in this assay (Q63604 32-821): as above
Target sequence in this assay (Q63604 32-821): as above

T2 sequence (P15209 32-821 F616A): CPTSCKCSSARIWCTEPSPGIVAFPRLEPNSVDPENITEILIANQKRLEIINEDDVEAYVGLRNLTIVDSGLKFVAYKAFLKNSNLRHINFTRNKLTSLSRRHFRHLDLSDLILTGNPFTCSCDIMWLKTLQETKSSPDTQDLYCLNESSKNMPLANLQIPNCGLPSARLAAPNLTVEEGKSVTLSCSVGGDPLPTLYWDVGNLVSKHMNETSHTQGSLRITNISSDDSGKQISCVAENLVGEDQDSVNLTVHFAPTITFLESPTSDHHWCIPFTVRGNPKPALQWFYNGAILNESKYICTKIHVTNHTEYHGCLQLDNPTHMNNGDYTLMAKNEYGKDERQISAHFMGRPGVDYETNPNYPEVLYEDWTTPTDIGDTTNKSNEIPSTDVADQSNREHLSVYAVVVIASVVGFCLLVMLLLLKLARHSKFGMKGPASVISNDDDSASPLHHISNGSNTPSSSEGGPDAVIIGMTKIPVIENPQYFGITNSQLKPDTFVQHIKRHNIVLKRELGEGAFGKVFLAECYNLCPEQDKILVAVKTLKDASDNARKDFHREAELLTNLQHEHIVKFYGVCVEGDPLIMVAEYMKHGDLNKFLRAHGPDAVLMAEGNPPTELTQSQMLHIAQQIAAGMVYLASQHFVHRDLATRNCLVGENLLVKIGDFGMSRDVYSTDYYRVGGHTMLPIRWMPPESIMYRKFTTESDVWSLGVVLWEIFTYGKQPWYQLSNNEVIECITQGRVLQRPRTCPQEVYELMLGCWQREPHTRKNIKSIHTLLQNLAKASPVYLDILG

`Br.O=c1cc(-c2cncnc2)oc2c(O)c(O)ccc12` [7,8-dihydroxy-2-(pyrimidin-5-yl)-4H-chromen-4-one.HBr] was tested, and the TrkB activation [1] was “robustly provoked TrkB activation”.

With `CN(C)CCCN1c2ccccc2CCc2ccccc21` [imipramine] the swimming immobility [2] was “decreased”.

In the case of `Oc1cc(O)c2c(c1)O[C@H](c1ccc(O)c(O)c1)[C@@H](O)C2` [Cianidanol], the “Erk activation (Western)” value [3] is reported as “activated”, the “protection of hippocampal neurons from glutamate-induced apoptosis” value (from here on “protection of hippocampal neurons”) [4] is reported as “comparable anti-apoptosis activity as BDNF” and the EC50 [5] is reported as 100 nM. The “suppression of apoptosis in T48 cell line” value (from here on “suppression of apoptosis”) [5] was “strongly suppressed apoptosis”.

For `CC(C)(C)n1nc(Cc2cccc3ccccc23)c2c(N)ncnc21` [1NMPP1], the “immobility time, 1NMPP1 treated versus saline control groups” value [6] was “No significant difference”, the “blocking of BDNF-provoked TrkB phosphorylation” value [7] was “selectively blocked” and the “blocking of 7,8-dihydroxyflavone-provoked TrkB phosphorylation” value ([7]; 0.5 μM 7,8-dihydroxyflavone) was “selectively blocked”. The “effect of pretreatment on KA-provoked apoptosis” value ([8]; 1NMPP1 in drinking water) was “elevated KA-provoked apoptosis”, the “apoptosis in TrkB F616A mice, treatment alone without KA” value ([8]; FIG. 24) was “no effect on apoptosis” and the “blocking of BDNF-triggered Akt and Erk1/2 activation” value [9] was “blocked”. For the same molecule, the “effect on Akt activation by 7,8-dihydroxyflavone” value [9] was “partially decreased Akt activation” and the “effect on Erk1/2 activation by 7,8-dihydroxyflavone” value [9] was “failed to inhibit Erk1/2 activation”.

In the case of `O=c1c(O)c(-c2ccc(O)c(O)c2)oc2cc(O)cc(O)c12` [Quercetin, reference compound], the “Erk activation (Western)” value [3] is reported as “activated”.

With `Br.O=c1cc(-c2ccccc2)[nH]c2c(O)c(O)ccc12` [7,8-dihydroxy-2-phenylquinolin-4(1H)-one, 7,8-dihydroxy-2-phenylquinolin-4(1H)-one.HBr] the TrkB activation [1] was “did not provoke the same level of TrkB activation”.

With `CC1=CC(=O)c2ccccc2C1=O` [Menadione] the “protection of hippocampal neurons” value [4] was “comparable anti-apoptosis activity as BDNF” and the “suppression of apoptosis” value [5] was “strongly suppressed apoptosis”.

In the case of `Br.O=c1cc(-c2ccc(F)cc2)[nH]c2c(O)c(O)ccc12` [2-(4-fluorophenyl)-7,8-dihydroxyquinolin-4(1H)-one.HBr], the TrkB activation [1] is reported as “did not provoke the same level of TrkB activation”.

`Oc1ccc2c(c1)O[C@H](c1ccc(O)c(O)c1)[C@@H](O)C2` [Fisetinidol] was tested, and the “protection of hippocampal neurons” value [4] was “no effect” and the “suppression of apoptosis” value [5] was “failed to suppress apoptosis”.

`COc1ccc(-c2cc(=O)c3c(O)cc(O)cc3o2)cc1O` [Diosmetin, reference compound] was tested, and the “caspase-3 activation in both wild-type and TrkB-/- neurons” value [10] was “non-selectively suppressed caspase-3 activation in both neurons”, the “Erk activation (Western)” value [3] was “activated” and the “protection of hippocampal neurons” value [4] was “only slightly protected neurons”. The EC50 [5] was 500 nM, the “suppression of apoptosis” value [5] was “strongly suppressed apoptosis” and the “Akt activation (Western)” value [11] was “activated”.

`O=C1C[C@@H](c2ccccc2)Oc2cc(O)cc(O)c21` [Pinocembrin, reference compound] was tested, and the TrkB dimerization ([12]; GST-TrkB and HA-TrkB, 0.5 μM, 30 minutes, FIG. 14) was “failed”, the “caspase-3 activation in both wild-type and TrkB-/- neurons” value [10] was “non-selectively suppressed caspase-3 activation in both neurons” and the “Erk activation (Western)” value [3] was “activated”. For the same molecule, the “protection of hippocampal neurons” value [4] was “comparable anti-apoptosis activity as BDNF”, the EC50 [5] was 100 nM and the “suppression of apoptosis” value [5] was “strongly suppressed apoptosis”.

With `CN(C)CCC=C1c2ccccc2CCc2ccccc21` [amitryptyline] the swimming immobility [2] was “decreased”.

With `Oc1ccc([C@H]2Oc3cc(O)cc(O)c3C[C@H]2O)cc1` [Epiafzelechin] the “protection of hippocampal neurons” value [4] was “only slightly protected neurons” and the “suppression of apoptosis” value [5] was “failed to suppress apoptosis”.

B1: BDNF: brain-derived neurotrophic factor, positive control, from Roche (protein, UniProt P23560 19-247, looked up)
Neurotrophic factor BDNF …: APMKEANIRGQGGLAYPGVRTHGTLESVNGPKAGSRGLTSLADTFEHVIEELLDEDQKVRPNEENNKDADLYTSRVMLSSQVPLEPPLLFLLEEYKNYLDAANMSMRVRRHSDPARRGELSVCDSISEWVTAADKKTAVDMSGGTVTVLEKVPVSKGQLKQYFYETKCNPMGYTKEGCRGIDKRHWNSQCRTTQSYVRALTMDSKKRIGWRFIRIDTSCVCTLTIKRGR
B1 was tested, and the “dimerization of TrkB with TrkA receptor” value ([12]; GST-TrkB and HA-TrkA cotransfected) was “failed to dimerize with TrkA receptor” and the “suppression of apoptosis” value [5] was “decreased apoptosis”.
